Source: patent US9409146B2, “Method for treating amyloid disease” (New York University, priority 2002, dated 2016)

How the values were obtained:
Tg2576 APP mouse model [1] = experiment: Radial arm maze after immunization of Tg2576 mice; format: in vivo
Method: (§1) Briefly, mice received their first immunization with K6Aβ1-30-NH2(E18E19) at 10.5-13 months of age (peptide: n=23; vehicle: n=24). The animals were bled prior to vaccination, 3 months following the first injection and at the time of sacrifice at 18 to 21 months. The mice were tested in the radial arm maze, subsequently perfused and their brains processed as described (Sigurdsson et al., Am. J. Pathol. 2001; 159:439-4471) (peptide: n=18; vehicle: n=18).
The vaccination was performed in the Tg2576 APP mouse model developed by Karen Hsiao and colleagues (Hsiao et al., Science 1996:274:99-1022). These mice develop Aβ plaques as early as at 11 to 13 months of age. The animals were maintained on a 12-hour light-dark cycle, and had access to food and water ad libitum. The animal care was in accordance with institutional guidelines.
K6Aβ1-30-NH2(E18E19) was supplied as trifluoroacetic acid salt. […]
Animals were kept in test room throughout the experiment, behind a cover to prevent view of the apparatus and room. […] Total number of errors and time to enter all eight arms were recorded. […]
(§2) The data for the amyloid burden within the brain were analyzed by a Student's t-test, one-tailed (GraphPad Prism). The radial arm maze data was analyzed by two-way ANOVA repeated measures. […] Correlation was determined by calculating the Pearson r correlation coefficient.

Tg2576 APP mouse model [2] = experiment: Antibody levels in plasma by ELISA after immunization; format: in vivo; conditions: for IgM response compared to IgG response: plasma at 1:500 dilution
Method: as §1
K6Aβ1-30-NH2(E18E19) was supplied as trifluoroacetic acid salt. The immunization procedure was performed as previously described by us (Sigurdsson et al., Am. J. Pathol. 2001; 159:439-4471) which is the same protocol as described by Schenk and colleagues (Schenk et al., Nature 1999; 400:173-1773) except that the peptide was not incubated overnight at 37° C. before injection. Briefly, the peptide was dissolved in phosphate-buffered saline (PBS) at a concentration of 2 mg/ml and then mixed 1:1 (v/v) with the adjuvant or PBS. Complete Freund's adjuvant was used for the first injection, incomplete Freund's adjuvant for the next three injections, and PBS from the fifth injection forward. The mice received a subcutaneous injection of 100 μl of the mixture (ie, 100 μg/100 μl) followed by a second injection 2 weeks later, and then monthly thereafter. Vaccination using the K6Aβ1-30-NH2(E18E19) peptide started when the mice were 10.5-13 months of age and the mice were sacrificed at 18-21 months of age.
Antibody levels were determined by 1:500 dilutions of plasma using an enzyme-linked immunosorbent assay (ELISA) as described previously (Jimenez-Huete et al., Alzheimers Reports 1998; 1:41-47) in which Aβ or its derivative is coated onto microtiter wells. The antibodies were detected by a goat anti-mouse IgG linked to a horseradish peroxidase (Amersham Pharmacia Biotech, Piscataway, N.J.) or a goat anti-mouse IgM peroxidase conjugate (Sigma, A8786), and tetramethyl benzidine (Pierce, Rockford, Ill.) was the substrate.

Aβ plaques = experiment: Histology and image analysis of Aβ plaques in brain (6E10 staining); format: in vivo, mouse
Method: as §1
Mice were anesthetized with sodium pentobarbital (150 mg/kg, intraperitoneally), perfused transaortically with phosphate buffer and the brains processed as previously described (Sigurdsson et al., Neurobiol. Aging 1996; 17:893-901) The right hemisphere was immersion fixed in periodate-lysine-paraformaldehyde (PLP), whereas the left hemisphere was snap-frozen for measurements of Aβ3 levels using established ELISA methods (Mehta et al., Arch. Neurol. 2000; 57:100-105). Serial coronal sections (40 μm) were cut and every fifth section was stained with 6E10 which recognizes Aβ and stains both pre-amyloid and Aβ plaques (Kim et al., Neurosci Res Comm 1990; 7:113-122). […]
Immunohistochemistry of tissue sections was quantified with a Bioquant image analysis system, and unbiased sampling was used (West et al., Trends Neurosci. 1999; 22:51-61). […] Cortical area analyzed was dorsomedially from the cingulate cortex and extended ventrolaterally to the rhinal fissure within the right hemisphere. The area of the grid was 800×800 μm^2 and amyloid load was measured in 20 frames per mouse (each: 640×480 μm^2), chosen randomly. […] The number of plaques were also counted and the plaques were divided into three groups based on their size (small: 0.01-50 μm^2; medium: 50.01-1000 μm^2; large: >1000 μm^2).
as §2

[3] = tested on: immobilized Aβ40 and Aβ42 peptides; experiment: Solid-phase binding assay (ELISA) of apoE preparations to immobilized Aβ peptides; conditions: delipidated or lipidated (HDL/r-HDL) apoE3 and apoE4, 0-150 nM, 3 h
immobilized Aβ40 and Aβ42 peptides, sequence (P05067 672-711 limits assumed): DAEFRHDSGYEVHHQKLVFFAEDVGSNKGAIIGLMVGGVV
Method: The binding of apoE to Aβ species was studied by ELISA using immobilized freshly prepared (non-aggregated) or 72-h-aggregated Aβ40 and Aβ42 and apoE3 or apoE4 isoforms with different degrees of lipidation. Polystyrene microtitre plates (Immulon2; Dynex Technology, Chantilly, Va., U.S.A.) were coated for 2 h. at 37° C. with either fresh or aggregated Aβ40 and Aβ42 (40(0 ng in 100 μl of 0.1 M NaHCO3, pH 9.6, per well). Under these conditions, 10 ng of fresh Aβ40, 9.6 ng of fresh Aβ42, 10.2 ng of aggregated Aβ40 and 10.9 ng of aggregated Aβ42 (representing 2.5, 2.4, 2.6 and 2.7% of the peptide offered, respectively) were coated to the microtitre wells, as determined by a modification of the Quantigold assay (Diversified Biotech, Boston, Mass., U.S.A.) for protein quantification. After blocking with Superblock (Pierce), increasing concentrations of apoE (0-150 nM in TBS; 100 μl per well) were added to the Aβ-coated wells and incubated for 3 h. at 37° C. Bound apoE was detected with monoclonal anti-apoE antibody (3D12, 1:1000) followed by alkaline-phosphatase-conjugated goat F(ab′)2 anti-mouse IgG (1:3000; BioSource International, Camarillo, Calif., U.S.A.). The reaction was developed for 30 min. with p-nitrophenyl phosphate in diethanolamine buffer (Bio-Rad, Hercules, Calif., U.S.A.), and quantified at 405 nm on a Microplate Reader (Cambridge Technology, Watertown, Mass., U.S.A.). […]

Substance | errors in the radial arm maze compared to vehicle-treated controls (Tg2576 APP mouse model [1]; Tg2576 transgenic mice, two-way ANOVA repeated measures, p<0.05) | radial arm maze performance compared to day 1 (Tg2576 APP mouse model [1]; immunized mice, p<0.01-0.05) | cross-reactivity of generated IgM antibodies (Tg2576 APP mouse model [2]; IgM antibodies after immunization) | IgM response compared to IgG response (Tg2576 APP mouse model [2]) | IgM response compared to IgG response (Tg2576 APP mouse model [2]; listed as K6Aβ1-30-NH2(E18E19)) | effect on large plaques (Aβ plaques; large: >1000 μm^2) | reduction of medium sized plaques (Aβ plaques; medium: 50.01-1000 μm^2, p=0.04) | reduction of small plaques (Aβ plaques; small: 0.01-50 μm^2, p=0.02) | binding of apoE to Aβ [3]
K6Aβ1-30(E18E19): first 30 amino acids of amyloid-β with glutamate substituted for valine and phenylalanine in positions 18 and 19 | significantly fewer errors | showed improvements on days 3, 5, and 7-9 | cross-reacted with Aβ1-40 | substantially more pronounced IgM response compared to IgG response | high IgM response and low IgG response | not significantly (N.S.) affected | 29% | 34% | –
apoE: human apoE3 or apoE4 from Sf9, HEK-293 or RAW-264 cells, delipidated or in HDL/r-HDL particles | – | – | – | – | – | – | – | – | high affinity
